The assay deals with T1, Bcl-2 protein (Recombinant Human Bcl-2 Protein) (Homo sapiens, UniProt P10415).
T1 construct: purchased Novus NBP2-34889
Description: Binding evaluation of mixture library compounds to Bcl-2 using AS-MS (affinity selection mass spectrometry). The conditions noted are these: for ASMS ratio (%) n = 1: replicate n = 1; for ASMS ratio (%) n = 1 / ASMS ratio (%) n = 2: ASMS Ratio(%)=(A−C)/B×100; for ASMS ratio (%) n = 2: replicate n = 2. In outline:
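Bcl-2 binding is scored from LC/MS signal retained with protein through gel-filtration spin columns, normalised to unfiltered and protein-free controls. Incubation: 20 μM protein, […] per compound, 1 h, 23° C.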

Setting [1] is: AS-MS on the mixture of 1200 library compounds.
Where [2] appears, read: AS-MS, mixture of 1200 compounds, Bcl-2.

T1 sequence (P10415 whole entry): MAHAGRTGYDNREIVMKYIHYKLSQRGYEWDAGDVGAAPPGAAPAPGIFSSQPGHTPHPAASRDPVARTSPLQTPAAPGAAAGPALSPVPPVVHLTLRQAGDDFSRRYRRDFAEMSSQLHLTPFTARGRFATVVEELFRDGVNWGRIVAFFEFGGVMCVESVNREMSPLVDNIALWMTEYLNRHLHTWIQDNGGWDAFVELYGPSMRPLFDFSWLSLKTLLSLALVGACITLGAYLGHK

Regarding `CCOc1cncc(-c2ccccc2CCC(=O)N2CCN(c3ccc(C(=O)NS(=O)(=O)CC45CC6CC(CC(C6)C4)C5)nn3)CC2)c1` [B2A012-01, N-(1-Adamantylmethylsulfonyl)-6-[4-[3-[2-(5-ethoxypyridin-3-yl)phenyl]propanoyl]piperazin-1-yl]pyridazine-3-carboxamide], for the setting “AS-MS, mixture library, Bcl-2”, the “ASMS ratio (%) n = 1” value was determined as 1.5% and the “ASMS ratio (%) n = 2” value amounted to 1.9%.

Consider `CCCNC(=O)c1ccc(N2CCN(Cc3ccc(-c4cncc(OCC)c4)cc3OC)CC2)nn1` [B1M100-01, 6-[4-[[4-(5-Ethoxypyridin-3-yl)-2-methoxyphenyl]methyl]piperazin-1-yl]-N-propylpyridazine-3-carboxamide], for which, under setting [1], the “ASMS ratio (%) n = 1” value came out at 0.5% and the “ASMS ratio (%) n = 2” value is −1.5%.

Regarding `CCOc1cncc(-c2ccc(C(=O)N3CCN(c4ccc(C(=O)NS(=O)(=O)c5ccc(NCCSc6ccccc6)c(C(F)(F)F)c5)cc4)CC3)c3ccccc23)c1` [B2R036-01, 4-[4-[4-(5-Ethoxypyridin-3-yl)naphthalene-1-carbonyl]piperazin-1-yl]-N-[4-(2-phenylsulfanylethylamino)-3-(trifluoromethyl)phenyl]sulfonylbenzamide], the “ASMS ratio (%)” value was 3.2% (n = 1) and −0.8% (n = 2).

In the case of `CCOc1cccc(-c2cc(CN3CCN(c4ccc(C(=O)NCC(F)(F)F)nn4)CC3)cc(OCC)c2)c1` [B1K081-01, 6-[4-[[3-Ethoxy-5-(3-ethoxyphenyl)phenyl]methyl]piperazin-1-yl]-N-(2,2,2-trifluoroethyl)pyridazine-3-carboxamide], under setting [2], the “ASMS ratio (%) n = 1” value is 2.3% and the “ASMS ratio (%) n = 2” value was −0.4%.

As for `CCOc1cccc(-c2ccc(C(=O)N3CCN(c4ccc(C(=O)NS(=O)(=O)CCC(F)(F)F)cc4)CC3)c3ccccc23)c1` [B2N035-01, 4-[4-[4-(3-Ethoxyphenyl)naphthalene-1-carbonyl]piperazin-1-yl]-N-(3,3,3-trifluoropropylsulfonyl)benzamide], the “ASMS ratio (%)” value by setting is: (n = 1) 0.0%; (n = 2) 0.0%.

`CCOc1cncc(-c2ccc(C(=O)N3CCN(c4ccc(C(=O)NS(=O)(=O)c5ccc(NCCSc6ccccc6)c(C(F)(F)F)c5)cc4)CC3)cc2F)c1` [B2R028-01, 4-[4-[4-(5-Ethoxypyridin-3-yl)-3-fluorobenzoyl]piperazin-1-yl]-N-[4-(2-phenylsulfanylethylamino)-3-(trifluoromethyl)phenyl]sulfonylbenzamide]: the “ASMS ratio (%)” value runs as follows: (n = 1) 4.1%; (n = 2) −0.5%.

Regarding `CCOc1cncc(-c2ccccc2CCC(=O)N2CCN(c3ccc(C(=O)N(C)CC45CC6CC(CC(C6)C4)C5)nn3)CC2)c1` [B3A012-01, N-(1-Adamantylmethyl)-6-[4-[3-[2-(5-ethoxypyridin-3-yl)phenyl]propanoyl]piperazin-1-yl]-N-methylpyridazine-3-carboxamide], under setting [1], the “ASMS ratio (%) n = 1” value stood at 1.4% and the “ASMS ratio (%) n = 2” value is reported as −2.7%.

Turning to `CCOc1cncc(-c2cc(CN3CCN(c4ccc(C(=O)NCC(F)(F)F)cc4)CC3)cc(C(F)(F)F)c2)c1` [B1K062-01, 4-[4-[[3-(5-Ethoxypyridin-3-yl)-5-(trifluoromethyl)phenyl]methyl]piperazin-1-yl]-N-(2,2,2-trifluoroethyl)benzamide], under setting [2], the “ASMS ratio (%) n = 1” value worked out at 1.2% and the “ASMS ratio (%) n = 2” value is on record as −0.3%.

Turning to `CCOc1cccc(-c2csc(CN3CCN(c4ccc(C(=O)NCC(F)(F)F)nn4)CC3)c2)c1` [B1K093-01, 6-[4-[[4-(3-Ethoxyphenyl)thiophen-2-yl]methyl]piperazin-1-yl]-N-(2,2,2-trifluoroethyl)pyridazine-3-carboxamide], under setting [2], the “ASMS ratio (%) n = 1” value was 2.7% and the “ASMS ratio (%) n = 2” value is reported as −0.4%.

Regarding `CCOc1cncc(-c2cc(C(=O)N3CCN(c4ccc(C(=O)Nc5ccc(OC)cc5)cc4)CC3)cc(C(C)(C)C)c2)c1` [B1O038-01, 4-[4-[3-tert-Butyl-5-(5-ethoxypyridin-3-yl)benzoyl]piperazin-1-yl]-N-(4-methoxyphenyl)benzamide], under setting [1], the “ASMS ratio (%) n = 1” value was 2.8% and the “ASMS ratio (%) n = 2” value is recorded as −0.7%.

Consider `CCOc1cncc(-c2ccc(CN3CCN(c4ccc(C(=O)NS(=O)(=O)CCC(F)(F)F)cc4)CC3)cc2F)c1` [B2N052-01, 4-[4-[[4-(5-Ethoxypyridin-3-yl)-3-fluorophenyl]methyl]piperazin-1-yl]-N-(3,3,3-trifluoropropylsulfonyl)benzamide], for which the “ASMS ratio (%)” value is 0.0% (n = 1) and −0.5% (n = 2).

With `CCOc1cncc(-c2ccc(CN3CCN(c4ccc(C(=O)NS(=O)(=O)C(C)(C)C)cc4)CC3)c(OC)c2)c1` [B2L054-01], the “ASMS ratio (%)” value reads like this: (n = 1) 0.0%; (n = 2) 0.0%.

For `CCOc1cncc(-c2ccc(CN3CCN(c4ccc(C(=O)NS(=O)(=O)c5ccc(NCCSc6ccccc6)c([N+](=O)[O-])c5)nn4)CC3)c3ccccc23)c1` [B2Q092-01], under “AS-MS, mixture library, Bcl-2”, the “ASMS ratio (%) n = 1” value came to 10.4% and the “ASMS ratio (%) n = 2” value worked out at 4.8%.

Consider `CCOc1cncc(-c2csc(C(=O)N3CCN(c4ccc(C(=O)NS(=O)(=O)c5ccc(NCCSc6ccccc6)c([N+](=O)[O-])c5)cc4)CC3)c2)c1` [B2Q024-01, 4-[4-[4-(5-Ethoxypyridin-3-yl)thiophene-2-carbonyl]piperazin-1-yl]-N-[3-nitro-4-(2-phenylsulfanylethylamino)phenyl]sulfonylbenzamide], for which, for the setting “AS-MS, mixture library, Bcl-2”, the “ASMS ratio (%) n = 1” value is recorded as 4.5% and the “ASMS ratio (%) n = 2” value is reported as 7.5%.

Regarding `CCOc1cncc(-c2ccc(C(=O)N3CCN(c4ccc(C(=O)NS(=O)(=O)c5ccc(NCCSc6ccccc6)c(C(F)(F)F)c5)cc4)CC3)cc2C)c1` [B2R026-01, 4-[4-[4-(5-Ethoxypyridin-3-yl)-3-methylbenzoyl]piperazin-1-yl]-N-[4-(2-phenylsulfanylethylamino)-3-(trifluoromethyl)phenyl]sulfonylbenzamide], the “ASMS ratio (%)” value is on record as 1.7% (n = 1) and −4.6% (n = 2).

Take `CCOc1cncc(-c2cnn(-c3cc(C(=O)N4CCN(c5ccc(C(=O)NS(=O)(=O)CC67CC8CC(CC(C8)C6)C7)cc5)CC4)cc(C(F)(F)F)c3)c2)c1` [B2A044-01, N-(1-Adamantylmethylsulfonyl)-4-[4-[3-[4-(5-ethoxypyridin-3-yl)pyrazol-1-yl]-5-(trifluoromethyl)benzoyl]piperazin-1-yl]benzamide]: where the note is “AS-MS, mixture library, Bcl-2”, the “ASMS ratio (%) n = 1” value is on record as 0.7% and the “ASMS ratio (%) n = 2” value is −0.2%.

With `CCOc1cncc(-c2ccc(CN3CCN(c4ccc(C(=O)Nc5ccc(OC)cc5)nn4)CC3)cc2F)c1` [B1O078-01], under setting [1], the “ASMS ratio (%) n = 1” value was found to be 4.8% and the “ASMS ratio (%) n = 2” value was 1.8%.

On to `CCOc1cncc(-c2csc(CN3CCN(c4ccc(C(=O)NCC56CC7CC(CC(C7)C5)C6)nn4)CC3)c2)c1` [B1A094-01, N-(1-Adamantylmethyl)-6-[4-[[4-(5-ethoxypyridin-3-yl)thiophen-2-yl]methyl]piperazin-1-yl]pyridazine-3-carboxamide], for which, under setting [2], the “ASMS ratio (%) n = 1” value worked out at 6.2% and the “ASMS ratio (%) n = 2” value is −0.7%.

For `CCOc1cncc(-c2ccc(CN3CCN(c4ccc(C(=O)NCC(F)(F)F)nn4)CC3)c(CC)c2)c1` [B1K076-01, 6-[4-[[4-(5-Ethoxypyridin-3-yl)-2-ethylphenyl]methyl]piperazin-1-yl]-N-(2,2,2-trifluoroethyl)pyridazine-3-carboxamide], the “ASMS ratio (%) n = 2” value under setting [2] is on record as 0.0%.

Regarding `CCOc1cccc(-c2cc(C(=O)N3CCN(c4ccc(C(=O)NS(=O)(=O)c5ccc(NCCSc6ccccc6)c(C(F)(F)F)c5)nn4)CC3)cc(C(C)(C)C)c2)c1` [B2R015-01, 6-[4-[3-tert-Butyl-5-(3-ethoxyphenyl)benzoyl]piperazin-1-yl]-N-[4-(2-phenylsulfanylethylamino)-3-(trifluoromethyl)phenyl]sulfonylpyridazine-3-carboxamide], the “ASMS ratio (%)” value runs as follows: (n = 1) 9.7%; (n = 2) 0.0%.

For `CCOc1cncc(-c2cc(CN3CCN(c4ccc(C(=O)NCC56CC7CC(CC(C7)C5)C6)nn4)CC3)cc(OCC)c2)c1` [B1A082-01, N-(1-Adamantylmethyl)-6-[4-[[3-ethoxy-5-(5-ethoxypyridin-3-yl)phenyl]methyl]piperazin-1-yl]pyridazine-3-carboxamide], under setting [2], the “ASMS ratio (%) n = 1” value turned out to be 3.0% and the “ASMS ratio (%) n = 2” value was 0.2%.

Consider “4-[4-[3-[4-(5-Ethoxypyridin-3-yl)pyrazol-1-yl]-5-(trifluoromethyl)benzoyl]piperazin-1-yl]-N-propylbenzamide [B1M031-01]”, for which, under setting [2], the “ASMS ratio (%) n = 1” value is recorded as 0.0% and the “ASMS ratio (%) n = 2” value is listed as −2.4%.

As for `CCOc1cncc(-c2cc(C(=O)N3CCN(c4ccc(C(=O)NS(=O)(=O)C(C)(C)C)cc4)CC3)cc(C(C)(C)C)c2)c1` [B2L038-01, 4-[4-[3-tert-Butyl-5-(5-ethoxypyridin-3-yl)benzoyl]piperazin-1-yl]-N-tert-butylsulfonylbenzamide], the “ASMS ratio (%)” value was 0.0% (n = 1) and 0.0% (n = 2).

For the compound `CCOc1cccc(-c2ccc(C(=O)N3CCN(c4ccc(C(=O)NS(=O)(=O)c5ccc(NCCSc6ccccc6)c(C(F)(F)F)c5)cc4)CC3)cc2F)c1` [B2R027-01, 4-[4-[4-(3-Ethoxyphenyl)-3-fluorobenzoyl]piperazin-1-yl]-N-[4-(2-phenylsulfanylethylamino)-3-(trifluoromethyl)phenyl]sulfonylbenzamide], the “ASMS ratio (%)” value reads like this: (n = 1) −3.7%; (n = 2) 1.2%.

For the origin of these results see patent publication US20240132431A1, “METHOD FOR ALKYLATING ACIDIC FUNCTIONAL GROUP” (Chugai Seiyaku Kabushiki Kaisha, priority 2021, published 2024).
